Drawing on patent US7119073B2, “Peptides and their use as inhibitors of hepatitis C virus ns3 protease” (Istituto Di Ricerche Di Biologia Molecolare P. Angeletti SpA, priority 2001, dated 2006), this text covers IC50 for 53 molecules.

The first experiment deals with T1, NS3 protease domain complexed to a modified form of the NS4A peptide (Pep4AK) (Hepatitis C virus genotype 1b, UniProt P26663).
T1 construct: NS3 protease domain (residues 1027–1206 of the HCV polyprotein)
T1 sequence (P26663 1027-1206, other chains not shown): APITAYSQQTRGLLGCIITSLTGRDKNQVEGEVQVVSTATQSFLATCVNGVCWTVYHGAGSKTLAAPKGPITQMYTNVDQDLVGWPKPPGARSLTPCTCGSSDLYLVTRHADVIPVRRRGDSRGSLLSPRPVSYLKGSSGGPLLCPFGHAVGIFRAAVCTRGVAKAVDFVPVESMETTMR
Nature of the experiment: HCV NS3 protease domain/NS4A cofactor peptide assay (Assay B). In kind it is biochemical. Conditions: NS3 protease domain/NS4A cofactor peptide assay; read-out: Assay B (IC50 class).
Turning to `CCOC(=O)CNc1cccc(CCNC(=O)C(CC(F)F)NC(=O)C(CC(C)C)NC(=O)c2ccccc2-c2ccccc2C(=O)O)c1` (centres unmarked) [Compound 721], the IC50 is below 100 µM.
For `CC(C)C[C@H](NC(=O)C1(Cc2cccc(C(=O)O)c2)CCc2ccccc2N1)C(=O)N[C@@H](CC(F)F)C(=O)NCCc1ccc(C(=O)O)cc1Cl` (single isomer, unassigned) [Compound 712a], the IC50 was below 100 µM.
`CC(C)C[C@H](NC(=O)C1(Cc2ccc(C(=O)O)s2)CCc2ccccc2N1)C(=O)N[C@@H](CC(F)F)C(=O)NCCc1ccc(C(=O)O)cc1Cl` (single isomer, unassigned) [Compound 711a]: the IC50 is below 100 µM.

The experiment is the same for the next values; noted with them: Table 1; NS3 protease domain/Pep4AK, 4AB peptide substrate; read-out: Assay B.
As to `CC(C)COC(=O)NC(CCC(=O)O)C(=O)NC(CC(C)C)C(=O)NC(CS)C(=O)NCCc1ccc(Oc2ccccc2)cc1` (centres unmarked) [Compound 145], the IC50 was below 100 µM.
In the case of `CC(C)COC(=O)NC(CCC(=O)O)C(=O)NC(CC(C)C)C(=O)NC(CS)C(=O)NCCc1ccccc1` (centres unmarked) [Compound 104], the IC50 is below 100 µM.
Turning to `CC(C)COC(=O)NC(CCC(=O)O)C(=O)NC(CC(C)C)C(=O)NC(CS)C(=O)NCCc1cccc(C(F)(F)F)c1` (centres unmarked) [Compound 131], the IC50 was below 100 µM.
`CC(C)COC(=O)NC(CCC(=O)O)C(=O)NC(CC(C)C)C(=O)NC(CS)C(=O)NCCc1ccc(O)cc1` (centres unmarked) [Compound 146]: the IC50 was below 100 µM.
For the molecule `CC(C)COC(=O)N[C@@H](CCC(=O)O)C(=O)N[C@@H](CC(C)C)C(=O)N[C@@H](CS)C(=O)NCCc1cn(CC(=O)O)c2ccccc12` [Compound 188], the IC50 is below 10 µM.
As to `CC(C)COC(=O)NC(CCC(=O)O)C(=O)NC(CC(C)C)C(=O)NC(CS)C(=O)NCCc1ccc([N+](=O)[O-])cc1` (centres unmarked) [Compound 147], the IC50 was below 100 µM.
Same read-out and setting: with `CC(C)CC(NC(=O)C(NC(=O)OC1CCS(=O)(=O)CC1)C(C)C)C(=O)NC(CS)C(=O)NCCc1ccc(C(=O)O)cc1Cl` (centres unmarked) [Compound 182] the figure was below 100 µM; with `CC(C)COC(=O)NC(CCC(=O)O)C(=O)NC(CC(C)C)C(=O)NC(CS)C(=O)NCCc1ccc(Br)cc1` (centres unmarked) [Compound 139], below 100 µM.
`CC(C)COC(=O)NC(CCC(=O)O)C(=O)NC(CC(C)C)C(=O)NC(CS)C(=O)NCCc1ccc(C(=O)O)cc1F` (centres unmarked) [Compound 186]: the IC50 was below 1 µM.
The same measure, in the same setting: in the case of `COc1ccc(CCNC(=O)C(CS)NC(=O)C(CC(C)C)NC(=O)C(CCC(=O)O)NC(=O)OCC(C)C)cc1Br` (centres unmarked) [Compound 176] it was below 100 µM.
In the case of `CC(C)COC(=O)NC(CCC(=O)O)C(=O)NC(CC(C)C)C(=O)NC(CS)C(=O)NCCc1ccccc1OCc1ccccc1` (centres unmarked) [Compound 124], the IC50 is below 100 µM.
Regarding `CC(C)COC(=O)NC(CCC(=O)O)C(=O)NC(CC(C)C)C(=O)NC(CS)C(=O)NCCc1cccc(Cl)c1` (centres unmarked) [Compound 127], the IC50 is below 100 µM.
Still for that read-out and setting: in the case of `CC(=O)NS(=O)(=O)c1ccc(CCNC(=O)C(CS)NC(=O)C(CC(C)C)NC(=O)C(CCC(=O)O)NC(=O)OCC(C)C)cc1` (centres unmarked) [Compound 160] it was below 10 µM; in that of `CC(C)C[C@H](NC(=O)[C@@H](NC(=O)OCc1ccc(C(=O)O)cc1)C(C)C)C(=O)N[C@@H](CS)C(=O)NCCc1ccccc1` [Compound 102], below 100 µM; in that of `COC(=O)c1ccccc1CCNC(=O)C(CS)NC(=O)C(CC(C)C)NC(=O)C(CCC(=O)O)NC(=O)OCC(C)C` (centres unmarked) [Compound 122], below 100 µM.
Same read-out and setting: in the case of `CC(C)COC(=O)NC(CCC(=O)O)C(=O)NC(CC(C)C)C(=O)NC(CS)C(=O)NCC1(c2ccccc2)CCC1` (centres unmarked) [Compound 110] it was below 100 µM; in that of `CC(C)COC(=O)NC(CCC(=O)O)C(=O)NC(CC(C)C)C(=O)NC(CS)C(=O)NCCc1ccc(Cl)c(Cl)c1` (centres unmarked) [Compound 172], below 100 µM; in that of `CC(C)COC(=O)NC(CCC(=O)O)C(=O)NC(CC(C)C)C(=O)NC(CS)C(=O)NCCc1cccc(F)c1` (centres unmarked) [Compound 126], below 100 µM.
Take `COC(=O)c1ccc(CCNC(=O)C(CS)NC(=O)C(CC(C)C)NC(=O)C(CCC(=O)O)NC(=O)OCC(C)C)cc1` (centres unmarked) [Compound 150]: the IC50 is below 100 µM.
Take `COc1ccc(OC)c(CCNC(=O)C(CS)NC(=O)C(CC(C)C)NC(=O)C(CCC(=O)O)NC(=O)OCC(C)C)c1` (centres unmarked) [Compound 174]: the IC50 is below 100 µM.
On the same count and under the same terms, with `CC(C)COC(=O)N[C@@H](CCC(=O)O)C(=O)N[C@@H](CC(C)C)C(=O)N[C@@H](CS)C(=O)NCCc1ccsc1` [Compound 190] the figure was below 10 µM; with `COc1ccccc1CCNC(=O)C(CS)NC(=O)C(CC(C)C)NC(=O)C(CCC(=O)O)NC(=O)OCC(C)C` (centres unmarked) [Compound 119], below 100 µM; with `CC(C)COC(=O)NC(CCC(=O)O)C(=O)NC(CC(C)C)C(=O)NC(CS)C(=O)NCCc1c[nH]c2ccccc12` (centres unmarked) [Compound 189], below 100 µM.
For `COc1ccc(CCNC(=O)C(CS)NC(=O)C(CC(C)C)NC(=O)C(CCC(=O)O)NC(=O)OCc2ccccc2)cc1` (centres unmarked) [Compound 143], the IC50 is below 100 µM.
Turning to `COC(=O)CCc1ccc(CCNC(=O)C(CS)NC(=O)C(CC(C)C)NC(=O)C(CCC(=O)O)NC(=O)OCC(C)C)cc1` (centres unmarked) [Compound 155], the IC50 was below 100 µM.

The experiment is the same for the next values; noted with them: Table 2; NS3 protease domain/Pep4AK; read-out: Assay B.
Take `COc1ccc(CCNC(=O)[C@H](CS)NC(=O)[C@H](CC(C)C)NC(=O)[C@H](CCC(=O)O)NS(=O)(=O)c2ccccc2)cc1` [Compound 250]: the IC50 is below 100 µM.
With `COc1ccc(C(=O)N[C@@H](CCC(=O)O)C(=O)N[C@@H](CC(C)C)C(=O)N[C@@H](CS)C(=O)NCCc2ccccc2Cl)cc1OC` [Compound 205], the IC50 is below 100 µM.
The same measure, in the same setting: with `Cc1nn(Cc2cccc(C(=O)N[C@@H](CCC(=O)O)C(=O)N[C@@H](CC(C)C)C(=O)N[C@@H](CS)C(=O)NCCc3ccccc3Cl)c2)c(C)c1Br` [Compound 210] the figure was below 100 µM.
As to `CC(C)C[C@H](NC(=O)[C@H](CCC(=O)O)NC(=O)[C@@H](O)c1ccccc1)C(=O)N[C@@H](CS)C(=O)NCCc1ccccc1Cl` [Compound 221], the IC50 is below 10 µM.
For `CC(C)C[C@H](NC(=O)[C@H](CCC(=O)O)NC(=O)c1cc(O)ccc1N)C(=O)N[C@@H](CS)C(=O)NCCc1ccccc1Cl` [Compound 208], the IC50 is below 100 µM.
Turning to `COc1ccc(CCNC(=O)[C@H](CS)NC(=O)[C@H](CC(C)C)NC(=O)[C@H](CCC(=O)O)NC(=O)Cc2ccccc2)cc1` [Compound 216], the IC50 was below 100 µM.
In the case of `Cc1ccc(S(=O)(=O)N[C@@H](CCC(=O)O)C(=O)N[C@@H](CC(C)C)C(=O)N[C@@H](CS)C(=O)NCCc2ccccc2Cl)cc1` [Compound 251], the IC50 is below 100 µM.
On to `CC(C)C[C@H](NC(=O)[C@H](CCC(=O)O)NC(=O)CC1CCCCC1)C(=O)N[C@@H](CS)C(=O)NCCc1ccccc1Cl` [Compound 234], for which the IC50 was below 100 µM.
Take `CC(C)C[C@H](NC(=O)[C@H](CCC(=O)O)NC(=O)Cc1cccc(CC(=O)O)c1)C(=O)N[C@@H](CS)C(=O)NCCc1ccc(Cl)cc1Cl` [Compound 226]: the IC50 is below 100 µM.
As for `CC(C)C[C@H](NC(=O)[C@H](CCC(=O)O)NC(=O)c1ccncc1N)C(=O)N[C@@H](CS)C(=O)NCCc1ccccc1Cl` [Compound 209], the IC50 was below 100 µM.
Take `COc1ccc(CCNC(=O)[C@H](CS)NC(=O)[C@H](CC(C)C)NC(=O)[C@H](CCC(=O)O)NC(=O)CCC2CCCC2)cc1` [Compound 236]: the IC50 was below 100 µM.
The same measure, in the same setting: in the case of `COc1ccc(CCNC(=O)[C@H](CS)NC(=O)[C@H](CC(C)C)NC(=O)[C@H](CCC(=O)O)NS(C)(=O)=O)cc1` [Compound 254] it was below 100 µM; in that of `CC(C)C[C@H](NC(=O)[C@H](CCC(=O)O)NC(=O)c1cccc(Br)c1)C(=O)N[C@@H](CS)C(=O)NCCc1ccccc1Cl` [Compound 206], below 100 µM; in that of `CC(C)C[C@H](NC(=O)[C@H](CCC(=O)O)NC(=O)CCc1ccccc1)C(=O)N[C@@H](CS)C(=O)NCCc1ccc(Cl)cc1Cl` [Compound 217], below 100 µM.
Take `COc1ccc(CCNC(=O)[C@H](CS)NC(=O)[C@H](CC(C)C)NC(=O)[C@H](CCC(=O)O)NC(=O)CC(C)(C)CC(=O)O)cc1` [Compound 241]: the IC50 is below 100 µM.
In the case of `CC(C)C[C@H](NC(=O)[C@H](CCC(=O)O)NC(=O)Cc1ccccc1)C(=O)N[C@@H](CS)C(=O)NCCc1ccccc1Cl` [Compound 215], the IC50 is below 100 µM.
Regarding `CC(C)C[C@H](NC(=O)[C@H](CCC(=O)O)NC(=O)c1ccccc1-c1ccccc1C(=O)O)C(=O)N[C@@H](CS)C(=O)NCCc1ccccc1Cl` [Compound 211], the IC50 was below 100 µM.
In the case of `CC(C)C[C@H](NC(=O)[C@H](CCC(=O)O)NC(=O)N1CCOCC1)C(=O)N[C@@H](CS)C(=O)NCCc1ccccc1Cl` [Compound 237], the IC50 is below 100 µM.
As to `CC(C)C[C@H](NC(=O)[C@H](CCC(=O)O)NC(=O)C(=O)c1cccs1)C(=O)N[C@@H](CS)C(=O)NCCc1ccccc1Cl` [Compound 224], the IC50 was below 100 µM.
Consider `COc1ccc(CCNC(=O)[C@H](CS)NC(=O)[C@H](CC(C)C)NC(=O)[C@H](CCC(=O)O)NC(=O)c2cc3ccccc3s2)cc1` [Compound 213], for which the IC50 is below 100 µM.
Still for that read-out and setting: in the case of `CC(C)C[C@H](NC(=O)[C@H](CCC(=O)O)NC(=O)c1ccc2c(c1)OCO2)C(=O)N[C@@H](CS)C(=O)NCCc1ccccc1Cl` [Compound 203] it was below 100 µM.
`CC(C)C[C@H](NC(=O)[C@H](CCC(=O)O)NC(=O)CC1NC(=O)NC1=O)C(=O)N[C@@H](CS)C(=O)NCCc1ccc(Cl)cc1Cl` (some centres unmarked) [Compound 238]: the IC50 was below 100 µM.

Still in this experiment, the particulars now being: Table 4; NS3 protease domain/Pep4AK; read-out: Assay B.
In the case of `CC(C)COC(=O)N[C@@H](CCC(=O)O)C(=O)N[C@H](C(=O)N[C@@H](CS)C(=O)NCCc1ccccc1Cl)C1CCCC1` [Compound 411], the IC50 was below 100 µM.
Still for that read-out and setting: in the case of `CC(C)COC(=O)NC(CCC(=O)O)C(=O)N1C(C(=O)NC(CS)C(=O)NCCc2ccccc2Cl)CCC1c1ccccc1` (centres unmarked) [Compound 422] it was below 100 µM.
For `CC(C)COC(=O)N[C@@H](CCC(=O)O)C(=O)N[C@@H](CCc1ccccc1)C(=O)N[C@@H](CS)C(=O)NCCc1ccccc1Cl` [Compound 414], the IC50 was below 100 µM.
